Experimental findings from ChEMBL document CHEMBL5344425, “Discovery of 5-(Pyrimidin-2-ylamino)-1H-indole-2-carboxamide Derivatives as Nur77 Modulators with Selective and Potent Activity Against Triple-Negative Breast Cancer” (J Med Chem, 2023) are described below.

Data set [1] is described as follows: Cytotoxicity against human MCF-10A cells assessed as inhibition of cell growth measured after 24 hrs by MTT assay. The format is toxicity, cell-based.
In another data set the test system is HepG2. As to the kind of experiment: Antiproliferative activity against human HepG2 cells assessed as inhibition of cell growth measured after 24 hrs by MTT assay. The format is functional, cell-based. The settings on record: HepG2, 24 h.
The subject of data set [2] is HeLa. Description: Antiproliferative activity against human HeLa cells assessed as inhibition of cell growth measured after 24 hrs by MTT assay. The format is functional, cell-based.
The test system of data set [3] is HeLa. Description: Antiproliferative activity against human HeLa cells transfected with Nur77 siRNA assessed as inhibition of cell growth measured after 24 hrs by MTT assay. In kind it is functional, cell-based.
For data set [4], the target named is T1, Nuclear receptor subfamily 4immunitygroup A member 1 (Homo sapiens, UniProt P22736). Description: Binding affinity to wild type Nur77 ligand binding domain (unknown origin) assessed as decrease in fluorescence intensity incubated for 30 secs by fluorescence spectrophotometric analysis.
T1 sequence (P22736 whole entry, the tested form may be a part): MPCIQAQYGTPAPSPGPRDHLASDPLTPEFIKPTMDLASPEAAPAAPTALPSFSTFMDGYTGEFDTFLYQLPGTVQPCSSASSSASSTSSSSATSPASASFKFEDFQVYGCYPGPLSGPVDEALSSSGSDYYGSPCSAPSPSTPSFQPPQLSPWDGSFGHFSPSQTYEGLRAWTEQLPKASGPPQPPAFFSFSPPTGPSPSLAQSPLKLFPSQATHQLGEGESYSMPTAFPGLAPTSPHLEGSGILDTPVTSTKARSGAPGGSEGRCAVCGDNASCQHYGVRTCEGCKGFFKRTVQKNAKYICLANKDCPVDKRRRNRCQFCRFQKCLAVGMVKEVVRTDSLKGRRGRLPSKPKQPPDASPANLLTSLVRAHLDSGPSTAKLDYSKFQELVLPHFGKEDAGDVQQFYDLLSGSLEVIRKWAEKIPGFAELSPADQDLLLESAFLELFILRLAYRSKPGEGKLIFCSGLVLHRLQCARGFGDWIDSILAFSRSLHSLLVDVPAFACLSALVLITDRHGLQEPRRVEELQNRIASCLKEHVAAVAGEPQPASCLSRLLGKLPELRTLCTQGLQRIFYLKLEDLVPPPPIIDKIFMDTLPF
The target of data set [5] is T1, Nuclear receptor subfamily 4immunitygroup A member 1. As to the kind of experiment: Antagonist activity at Nur77 ligand binding domain (unknown origin) transfected in HEK293T cells cotransfected with pG5-Luc assessed as inhibition of receptor transcriptional activity measured after 12 hrs by luciferase reporter gene assay. The format is cell-based. The settings on record: filed as antagonist, dose 0.5-2 µM.

The target of data set [6] is T2, Peroxisome proliferator-activated receptor gamma (Homo sapiens) (UniProt P37231).
T2 sequence (whole entry): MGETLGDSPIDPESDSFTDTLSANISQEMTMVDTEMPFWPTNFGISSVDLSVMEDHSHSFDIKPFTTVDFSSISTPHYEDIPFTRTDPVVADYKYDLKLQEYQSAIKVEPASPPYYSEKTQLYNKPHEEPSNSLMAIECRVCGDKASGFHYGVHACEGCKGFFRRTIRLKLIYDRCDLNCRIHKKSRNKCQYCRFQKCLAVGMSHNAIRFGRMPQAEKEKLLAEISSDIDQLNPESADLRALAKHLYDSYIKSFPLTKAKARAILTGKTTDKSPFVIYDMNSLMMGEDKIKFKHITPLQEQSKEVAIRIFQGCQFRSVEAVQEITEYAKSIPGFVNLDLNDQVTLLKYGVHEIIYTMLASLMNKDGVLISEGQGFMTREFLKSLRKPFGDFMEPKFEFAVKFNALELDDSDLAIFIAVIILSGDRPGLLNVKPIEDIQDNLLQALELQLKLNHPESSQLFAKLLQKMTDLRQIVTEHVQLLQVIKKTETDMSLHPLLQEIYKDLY
Description: Antagonist activity at PPARgamma ligand binding domain (unknown origin) transfected in HEK293T cells cotransfected with pG5-Luc assessed as inhibition of receptor transcriptional activity at 2 uM measured after 12 hrs by luciferase reporter gene assay. The format is cell-based. (Reporter assays use an easily measured gene product as a stand-in for the process of interest.)

The subject of data set [7] is MDA-MB-231. Description: Induction of apoptosis in human MDA-MB-231 cells transfected with Myc-Nur77 assessed as PARP cleavage at 2 to 5 uM measured after 6 hrs by western blot analysis. The format is functional, cell-based. The conditions noted are these: dose 2-5 µM.
Data set [8] concerns Nuclear receptor subfamily 4immunitygroup A member 1 (Homo sapiens), P22736 [UNDEFINED MUTATION]. As to the kind of experiment: Induction of degradation of Myc-tagged Nur77 R184A mutant (unknown origin) transfected in human MDA-MB-231 cells at 2 to 5 uM measured after 6 hrs by western blot analysis. The format is cell-based. The conditions noted are these: dose 2-5 µM. (In western blotting, separated proteins are transferred to a membrane and probed.)
Nuclear receptor subfamily 4immunitygroup A member 1 (Homo sapiens), P22736 [UNDEFINED MUTATION], sequence (P22736 whole entry, looked up, stated change not applied): as the sequence (P22736 whole entry, the tested form may be a part) above

The subject of data set [9] is MDA-MB-231. Description: Induction of apoptosis in human MDA-MB-231 cells assessed as proportion of late apoptotic cells at 0.63 uM measured after 5 hrs by AnnexinV-FITC/PI staining based flow cytometry (reference value: 2.55%). In kind it is functional.
Data set [10] concerns MDA-MB-231. As to the kind of experiment: Induction of apoptosis in human MDA-MB-231 cells assessed as proportion of early apoptotic cells at 1.25 uM measured after 5 hrs by AnnexinV-FITC/PI staining based flow cytometry (reference value: 3.35%). In kind it is functional. (A flow cytometer gives signals particle by particle.)
Data set [11] relates to MDA-MB-231. As to the kind of experiment: Induction of apoptosis in human MDA-MB-231 cells assessed as proportion of late apoptotic cells at 2.5 uM measured after 5 hrs by AnnexinV-FITC/PI staining based flow cytometry (reference value: 2.55%). The format is functional.
Data set [12] has as its system MDA-MB-231. As to the kind of experiment: Induction of apoptosis in human MDA-MB-231 cells transfected with Nur77 siRNA assessed as PARP cleavage at 0.5 to 2 uM measured after 6 hrs by western blot analysis. In kind it is functional, cell-based. The settings on record: dose 0.5-2 µM.
Data set [13] concerns MDA-MB-231. Description: Induction of apoptosis in human MDA-MB-231 cells transfected with Nur77 siRNA assessed as early apoptotic cells at 1 uM measured after 6 hrs by AnnexinV-FITC/PI staining based flow cytometry (reference value: 1.88%). In kind it is functional.
For data set [14], the system named is MDA-MB-231. Description: Induction of apoptosis in human MDA-MB-231 cells transfected with Nur77 siRNA assessed as late apoptotic cells at 1 uM measured after 6 hrs by AnnexinV-FITC/PI staining based flow cytometry (reference value: 3.97%). The format is functional.
Data set [15] relates to MDA-MB-231. Description: Induction of apoptosis in human MDA-MB-231 cells transfected with ctr siRNA assessed as loss of mitochondrial membrane potential at 1 uM measured after 6 hrs by JC-1 staining based flow cytometry (reference value: 13.93%). The format is functional.
Data set [16] concerns MDA-MB-231. Description: Induction of apoptosis in human MDA-MB-231 cells assessed as PARP cleavage at 2.5 uM pretreated with caspase inhibitor, Z-VAD-FMK for 4 hrs followed by compound addition and measured after 6 hrs by western blot analysis. In kind it is functional, cell-based.
Data set [17] has as its system MDA-MB-231. Description: Induction of apoptosis in human MDA-MB-231 cells assessed as PARP cleavage at 2.5 uM pretreated with PI3K and autophagy inhibitor, Wortmannin for 4 hrs followed by compound addition and measured after 6 hrs by western blot analysis. In kind it is functional, cell-based.
Data set [18] can be described thus: Toxicity in BALB/c mouse xenografted with human MDA-MB-231 cells assessed as morphological changes in spleen at 10 mg/kg, ip qd for 16 days by Hematoxylin-Eosin staining based analysis. The format is organism-based. The conditions noted are these: in vivo, 384 h, time 16 day.
Data set [19] can be described thus: Selectivity index, ratio of IC50 for cytotoxicity against human MCF-10A cells to IC50 for antiproliferative activity against human MCF7 cells. In kind it is toxicity, cell-based. The settings on record: MCF-10A cells versus MCF7 cells, read-out: Ratio IC50.

The source made the active and inactive calls. The calls are words filed in the database; no cut-off is given here.

Usually IC50 stands for the concentration needed to halve the response being measured. By Kd is commonly meant the constant that tells how readily two partners part at equilibrium. With `CCN(CC)CCCNC(=O)c1cc2cc(Nc3nccc(-c4sc(NC)nc4C)n3)ccc2[nH]1`, the IC50 at 24 h in data set [1] amounted to 48 µM. In addition, the IC50 was 53.7 µM in the data set with HepG2, 1.99 µM with HeLa [2] and 9.15 µM with HeLa [3]. Also, the equilibrium dissociation constant (Kd) in [4] came out at 0.154 µM. Further, in data set [5], the inhibition result was “Dose-Dependent Effect”. In addition, the inhibition result in [6] was “inactive”. In addition, the outcome in the data set with MDA-MB-231 [7] and in the data set on MDA-MB-231 [17] was Active. Also, the outcome (in [8]; in the data set on MDA-MB-231 [12]; in the data set on MDA-MB-231 [16]) was inactive. In addition, the Activity in the data set on MDA-MB-231 [9] worked out at 5.16%; in the data set with MDA-MB-231 [10], 35.95%; in the data set with MDA-MB-231 [11], 16.69%; with MDA-MB-231 [13] it was 2.25%; in the data set on MDA-MB-231 [14], 2.24%; in the data set on MDA-MB-231 [15], 35.26%. For the same compound, the Activity result in data set [18] was “Non-Toxic”. Besides, in [19], the selectivity ratio amounted to 66.7.
